Target: T1, human histamine H3 receptor (Homo sapiens, UniProt Q9Y5N1)
T1 construct: expressed in transfected cells; host or cells: CHO K1 cells carrying the pSwitch regulatory plasmid, transfected with pGeneH3, induced with mifepristone; clone 3H3
Assay: Histamine H3 functional antagonist assay ([35S]GTPγS SPA on membranes)
Format: biochemical
Conditions: membranes of CHO K1 cells expressing human histamine H3; histamine 0.3 μM; read-out: antagonism (pKb) (converted)
Text: A membrane preparation containing histamine H3 receptors may be prepared in accordance with the following procedures:
(i) Generation of Histamine H3 Cell Line
DNA encoding the human histamine H3 gene (Huvar, A. et al. (1999) Mol. Pharmacol. 55(6), 1101-1107) was cloned into a holding vector, pCDNA3.1 TOPO (InVitrogen) and its cDNA was isolated from this vector by restriction digestion of plasmid DNA with the enzymes BamH1 and Not-1 and ligated into the inducible expression vector pGene (InVitrogen) digested with the same enzymes. The GeneSwitch™ system (a system where in transgene expression is switched off in the absence of an inducer and switched on in the presence of an inducer) was performed as described in U.S. Pat. Nos. 5,364,791; 5,874,534; and 5,935,934. Ligated DNA was transformed into competent DH5α E. coli host bacterial cells and plated onto Luria Broth (LB) agar containing Zeocin™ (an antibiotic which allows the selection of cells expressing the sh ble gene which is present on pGene and pSwitch) at 50 μg ml^−1. Colonies containing the re-ligated plasmid were identified by restriction analysis. DNA for transfection into mammalian cells was prepared from 250 ml cultures of the host bacterium containing the pGeneH3 plasmid and isolated using a DNA preparation kit (Qiagen Midi-Prep) as per manufacturers guidelines (Qiagen).
CHO K1 cells previously transfected with the pSwitch regulatory plasmid (InVitrogen) were seeded at 2×10e6 cells per T75 flask in Complete Medium, containing Hams F12 (GIBCOBRL, Life Technologies) medium supplemented with 10% v/v dialysed foetal bovine serum, L-glutamine, and hygromycin (100 μg ml^−1), 24 hours prior to use. Plasmid DNA was transfected into the cells using Lipofectamine plus according to the manufacturers guidelines (InVitrogen). 48 hours post transfection cells were placed into complete medium supplemented with 500 μg ml^−1 Zeocin™.
10-14 days post selection 10 nM Mifepristone (InVitrogen), was added to the culture medium to induce the expression of the receptor. 18 hours post induction cells were detached from the flask using ethylenediamine tetra-acetic acid (EDTA; 1:5000; InVitrogen), following several washes with phosphate buffered saline pH 7.4 and resuspended in Sorting Medium containing Minimum Essential Medium (MEM), without phenol red, and supplemented with Earles salts and 3% Foetal Clone II (Hyclone). Approximately 1×10e7 cells were examined for receptor expression by staining with a rabbit polyclonal antibody, 4a, raised against the N-terminal domain of the histamine H3 receptor, incubated on ice for 60 minutes, followed by two washes in sorting medium. Receptor bound antibody was detected by incubation of the cells for 60 minutes on ice with a goat anti rabbit antibody, conjugated with Alexa 488 fluorescence marker (Molecular Probes). Following two further washes with Sorting Medium, cells were filtered through a 50 μm Filcon™ (BD Biosciences) and then analysed on a FACS Vantage SE Flow Cytometer fitted with an Automatic Cell Deposition Unit. Control cells were non-induced cells treated in a similar manner. Positively stained cells were sorted as single cells into 96-well plates, containing Complete Medium containing 500 μg ml^−1 Zeocin™ and allowed to expand before reanalysis for receptor expression via antibody and ligand binding studies. One clone, 3H3, was selected for membrane preparation.
(ii) Membrane Preparation from Cultured Cells
All steps of the protocol are carried out at 4° C. and with pre-cooled reagents. The cell pellet is resuspended in 10 volumes of buffer A2 containing 50 mM N-2-hydroxyethylpiperazine-N′-2-ethanesulfonic acid (HEPES) (pH 7.40) supplemented with 10e-4M leupeptin (acetyl-leucyl-leucyl-arginal; Sigma L2884), 25 μg/ml bacitracin (Sigma B0125), 1 mM ethylenediamine tetra-acetic acid (EDTA), 1 mM phenylmethylsulfonyl fluoride (PMSF) and 2×10e-6M pepstain A (Sigma). […]

T1 sequence (Q9Y5N1 whole entry): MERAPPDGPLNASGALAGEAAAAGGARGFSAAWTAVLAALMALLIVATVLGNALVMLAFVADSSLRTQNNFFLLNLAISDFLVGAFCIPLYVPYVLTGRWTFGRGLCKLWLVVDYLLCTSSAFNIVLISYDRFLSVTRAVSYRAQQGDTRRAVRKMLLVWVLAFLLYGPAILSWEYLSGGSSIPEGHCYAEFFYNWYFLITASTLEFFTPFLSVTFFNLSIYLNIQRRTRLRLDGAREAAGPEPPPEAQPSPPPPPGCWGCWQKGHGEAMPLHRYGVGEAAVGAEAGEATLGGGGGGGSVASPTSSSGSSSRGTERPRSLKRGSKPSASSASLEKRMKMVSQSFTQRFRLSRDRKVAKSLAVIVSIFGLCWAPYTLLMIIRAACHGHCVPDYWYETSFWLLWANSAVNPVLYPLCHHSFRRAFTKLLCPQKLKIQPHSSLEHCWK

Row | Compound | Kb
1 | N#Cc1ccc(-c2ccc(C(=O)Nc3ccc4c(c3)CCN(C3CCC3)CC4)cc2)cn1 [Example 34, 4-(6-Cyano-3-pyridinyl)-N-(3-cyclobutyl-2,3,4,5-tetrahydro-1H-3-benzazepin-7-yl)benzamide] | < 0.316 nM
2 | O=C(Nc1ccc2c(c1)CCN(C1CCC1)CC2)c1ccc(N2CCOCC2)nc1 [Example 44, N-(3-Cyclobutyl-2,3,4,5-tetrahydro-1H-3-benzazepin-7-yl)-6-(4-morpholinyl)-3-pyridinecarboxamide] | < 0.316 nM
3 | N#Cc1ccc(-c2ccc(C(=O)Nc3ccc4c(c3)CCN(C3CCC3)CC4)cn2)cc1 [Example 98, 6-(4-Cyanophenyl)-N-(3-cyclobutyl-2,3,4,5-tetrahydro-1H-3-benzazepin-7-yl)-3-pyridinecarboxamide] | < 0.316 nM
4 | O=C(Nc1ccc2c(c1)CCN(C1CCC1)CC2)c1cnc(N2CCCCC2)cn1 [Example 113, N-(3-Cyclobutyl-2,3,4,5-tetrahydro-1H-3-benzazepin-7-yl)-5-(1-piperidinyl)-2-pyrazinecarboxamide] | < 0.316 nM
5 | O=C(Nc1ccc2c(c1)CCN(C1CCC1)CC2)N1CCCc2ccccc21 [Example 148, N-(3-Cyclobutyl-2,3,4,5-tetrahydro-1H-3-benzazepin-7-yl)-3,4-dihydro-1(2H)-quinolinecarboxamide] | < 0.316 nM

Results, then the compound that gave them:

Row | Kb | Compound
6 | < 0.316 nM | N#Cc1ccc(C(=O)Nc2ccc3c(c2)CCN(C2CCC2)CC3)cc1 [Example 2, 4-Cyano-N-(3-cyclobutyl-2,3,4,5-tetrahydro-1H-3-benzazepin-7-yl)benzamide]
7 | < 0.316 nM | O=C(Nc1ccc2c(c1)CCN(C1CCC1)CC2)c1ccc(-c2ccccn2)cc1 [Example 8, N-(3-Cyclobutyl-2,3,4,5-tetrahydro-1H-3-benzazepin-7-yl)-4-(2-pyridinyl)benzamide]
8 | < 0.316 nM | O=C(Nc1ccc2c(c1)CCN(C1CCC1)CC2)c1ccc(-c2cncnc2)cc1 [Example 29, N-(3-Cyclobutyl-2,3,4,5-tetrahydro-1H-3-benzazepin-7-yl)-4-(5-pyrimidinyl)benzamide]
9 | < 0.316 nM | O=C(Nc1ccc2c(c1)CCN(C1CCC1)CC2)c1ccc(-n2cnnn2)cc1 [Example 33, N-(3-Cyclobutyl-2,3,4,5-tetrahydro-1H-3-benzazepin-7-yl)-4-(1H-tetrazol-1-yl)benzamide]
10 | < 0.316 nM | Cc1ccc(C(=O)Nc2ccc3c(c2)CCN(C2CCC2)CC3)cn1 [Example 37, N-(3-Cyclobutyl-2,3,4,5-tetrahydro-1H-3-benzazepin-7-yl)-6-methylnicotinamide]
11 | < 0.316 nM | O=C(Nc1ccc2c(c1)CCN(C1CCC1)CC2)c1ccc(N2CCNC2=O)cc1 [Example 88, N-(3-Cyclobutyl-2,3,4,5-tetrahydro-1H-3-benzazepin-7-yl)-4-(2-oxo-1-imidazolidinyl)benzamide]

Reference: US20070060566A1, “Benzazepine derivatives as histamine h3 antagonists” (priority 2003, published 2007)
